The results in this text go back to ChEMBL document CHEMBL1833824, “Effects of cyclization on stability, structure, and activity of α-conotoxin RgIA at the α9α10 nicotinic acetylcholine receptor and GABA(B) receptor” (J Med Chem, 2011).

Bridge positions count the residues as written; N and C are the ends. Peptide text beside a SMILES is read from it. Bounds are passed on as bounds.

The test system of data set [1] is Oocyte. The data set is described as follows: Inhibition of human alpha-9/rat alpha-10 nACHR expressed in Xenopus oocytes assessed as inhibition of acetylcholine-induced current at 50 nM by voltage clamp assay. In kind it is cell-based.
Data set [2] can be described thus: Inhibition of human alpha-9/rat alpha-10 nAChR expressed in Xenopus oocytes assessed as inhibition of acetylcholine-induced current by voltage clamp assay. The following applies: Oocyte. In kind it is cell-based.
Data set [3] in a line: Inhibition of GABA-B receptor-mediated high voltage-activated Ca2+ channel current in Wistar rat DRG neurons by whole-cell patch clamp assay. To be noted: DRG neuron. In general terms: Patch clamp records ionic current or voltage across a cell membrane.
The nature of data set [4]: Metabolic stability in human AB positive serum assessed as compound degradation at 20 uM at 5 hrs. It counts as ADME, cell-free. The following applies: read-out: Drug metabolism.
For data set [5], the system named is Oocyte. As to the kind of experiment: Inhibition of human alpha-9/rat alpha-10 nACHR expressed in Xenopus oocytes assessed as inhibition of acetylcholine-induced current by voltage clamp assay relative to RgIA. It counts as cell-based. To be noted: dose or concentration not given here.

As for `C[C@H](NC(=O)CNC(=O)[C@H](C)NC(=O)[C@H](C)NC(=O)CNC(=O)CNC(=O)[C@@H]1CSSC[C@H](NC(=O)CN)C(=O)N[C@H]2CSSC[C@H](NC(=O)[C@H](CCCNC(=N)N)NC(=O)[C@@H]3CCCN3C(=O)[C@H](CC(=O)O)NC(=O)[C@H](CO)NC2=O)C(=O)N[C@@H](CCCNC(=N)N)C(=O)N[C@@H](Cc2ccc(O)cc2)C(=O)N[C@@H](CCCNC(=N)N)C(=O)N1)C(=O)NCC(=O)O` (H-GCCSDPRCRYRCGGAAGAG-OH; disulfide 2-12, 3-8), the inhibition (commonly the drop in the measured response relative to a control, in per cent) in data set [1] came to 60%. For the same molecule, the IC50 (usually the concentration at which inhibition is half-maximal) was determined as 0.019 µM in data set [2] and 0.0363 µM in data set [3]. Moreover, the metabolised at 5 h, 20 µM in data set [4] turned out to be 54%.

In turn, `C[C@H](NC(=O)CNC(=O)[C@@H]1CSSC[C@H](NC(=O)CN)C(=O)N[C@H]2CSSC[C@H](NC(=O)[C@H](CCCNC(=N)N)NC(=O)[C@@H]3CCCN3C(=O)[C@H](CC(=O)O)NC(=O)[C@H](CO)NC2=O)C(=O)N[C@@H](CCCNC(=N)N)C(=O)N[C@@H](Cc2ccc(O)cc2)C(=O)N[C@@H](CCCNC(=N)N)C(=O)N1)C(=O)N[C@@H](C)C(=O)NCC(=O)O` (H-GCCSDPRCRYRCGAAG-OH; disulfide 2-12, 3-8) registered an IC50 in data set [3] of 0.0701 µM. For the same molecule, the inhibition in data set [5] came to 12%.

On to `N=C(N)NCCC[C@@H]1NC(=O)[C@H](Cc2ccc(O)cc2)NC(=O)[C@H](CCCNC(=N)N)NC(=O)[C@@H]2CSSC[C@H](NC(=O)CN)C(=O)N[C@@H](CSSC[C@@H](C(=O)O)NC1=O)C(=O)N[C@@H](CO)C(=O)N[C@@H](CC(=O)O)C(=O)N1CCC[C@H]1C(=O)N[C@@H](CCCNC(=N)N)C(=O)N2` (H-GCCSDPRCRYRC-OH; disulfide 2-8, 3-12), for which the inhibition in data set [1] was 55%. Also, the IC50 turned out to be 0.034 µM in data set [2] and 0.0044 µM in data set [3]. Besides, in data set [4], the metabolised at 5 h, 20 µM was found to be 92%.

On to `C[C@H](NC(=O)[C@H](C)NC(=O)CNC(=O)[C@@H]1CSSC[C@H](NC(=O)CN)C(=O)N[C@H]2CSSC[C@H](NC(=O)[C@H](CCCNC(=N)N)NC(=O)[C@@H]3CCCN3C(=O)[C@H](CC(=O)O)NC(=O)[C@H](CO)NC2=O)C(=O)N[C@@H](CCCNC(=N)N)C(=O)N[C@@H](Cc2ccc(O)cc2)C(=O)N[C@@H](CCCNC(=N)N)C(=O)N1)C(=O)O` (H-GCCSDPRCRYRCGAA-OH; disulfide 2-12, 3-8), for which, in data set [3], the IC50 amounted to 0.0825 µM. The inhibition in data set [5] is 8%.

With `C[C@H](NC(=O)CNC(=O)CNC(=O)[C@@H]1CSSC[C@H](NC(=O)CN)C(=O)N[C@H]2CSSC[C@H](NC(=O)[C@H](CCCNC(=N)N)NC(=O)[C@@H]3CCCN3C(=O)[C@H](CC(=O)O)NC(=O)[C@H](CO)NC2=O)C(=O)N[C@@H](CCCNC(=N)N)C(=O)N[C@@H](Cc2ccc(O)cc2)C(=O)N[C@@H](CCCNC(=N)N)C(=O)N1)C(=O)N[C@@H](C)C(=O)NCC(=O)NCC(=O)O` (H-GCCSDPRCRYRCGGAAGG-OH; disulfide 2-12, 3-8), the IC50 in data set [2] was > 0.05 µM; in data set [3], 0.0043 µM. In data set [4], the metabolised at 5 h, 20 µM came out at 43%. Besides, the inhibition in data set [5] was 39%.

Consider `N=C(N)NCCC[C@H](NC(=O)[C@@H]1CSSC[C@@H]2NC(=O)[C@@H](NC(=O)CN)CSSC[C@H](NC(=O)[C@H](CCCNC(=N)N)NC(=O)[C@@H]3CCCN3C(=O)[C@H](CC(=O)O)NC(=O)[C@H](CO)NC2=O)C(=O)N[C@@H](CCCNC(=N)N)C(=O)N[C@@H](Cc2ccc(O)cc2)C(=O)N[C@@H](CCCNC(=N)N)C(=O)N1)C(=O)O`, for which, in data set [1], the inhibition stood at 60%. The IC50 is 0.04 µM in data set [2] and 0.0407 µM in data set [3].

Molecule `C[C@H](NC(=O)CNC(=O)[C@@H]1CSSC[C@H](NC(=O)CN)C(=O)N[C@H]2CSSC[C@H](NC(=O)[C@H](CCCNC(=N)N)NC(=O)[C@@H]3CCCN3C(=O)[C@H](CC(=O)O)NC(=O)[C@H](CO)NC2=O)C(=O)N[C@@H](CCCNC(=N)N)C(=O)N[C@@H](Cc2ccc(O)cc2)C(=O)N[C@@H](CCCNC(=N)N)C(=O)N1)C(=O)N[C@@H](C)C(=O)NCC(=O)NCC(=O)O` (H-GCCSDPRCRYRCGAAGG-OH; disulfide 2-12, 3-8) showed an IC50 in data set [3] of 0.0115 µM. Besides, in data set [5], the inhibition was 25%.
